Results reported in US4312605A, “Method for grouting joints and/or cracks in sewer conduits” (Hayward Baker Company, priority 1980, dated 1982).

Columns and labels:
albino rats [1] = test: Acute toxicity (LD50) of grout monomers; assay type: in vivo; settings: from LD50 of MBA vs acrylamide
[2] = Precipitation of crosslinker from aqueous monomer solution; assay type: physicochemical; settings: based on total metal acrylate salt; aqueous monomer solution 20-40% solids, especially if shaken
albino rats [3] = settings: cited from earlier work
[4] = cited from earlier work
[5] = Gel time of grout mixtures after mixing components A and B; assay type: physicochemical; settings: used instead of MgA in the monomer composition
Procedure: To 50 parts of each of the stock solutions a, b, c, d, and e, there is added 1.0 part of TEA (95% in water) and to another 50 parts of each of the stock solutions, there is added 2.0 parts of TEA (95% in water). The resulting ten solutions containing TEA, the latter five having twice as much TEA as the first five, are examples of component A that can be mixed with an approximately equal volume of initiator component B which in its simplest make-up consists of a solution in water of ammonium persulfate (AP).
The component B that is used with each of the first five of the TEA/monomer component A solutions is a solution of 2% AP in water, approximately 50 parts of the 2% AP solution being mixed, as at the discharge header of a packer, with 50 parts of the respective component A solution. These first five A and B mixtures when used in the field at about 20° (68° F.) have gel times of about 30 seconds. The component B made up for use with the last group of five TEA/monomer components A is a solution of 4% AP in water. When the latter AP solution is forced at approximately a rate of 50 parts for each 50 parts of a respective one of the last five TEA/monomer component A solutions through separate feed lines to the packer at field temperatures of about 10° (50° F.), the grout mixtures A and B give approximately 30-second gel times.

[6] = 4 to 25% calcium acrylate based on dry soil weight, redox catalyst; U.S. Pat. No. 2,651,619; cited from earlier work

## C=CC(=O)NCNC(=O)C=C [MBA, N,N'-methylenebisacrylamide]
Albino rats [1]
  monomer toxicity (factor relative to acrylamide): 1/2
[2]
  amount of crosslinker above which it tends to precipitate: about 4 % by weight
Albino rats [3]
  LD50: 390 mg/kg
[4]; at dose schedules and conditions employed (MRI Project No. 4308-N, page 287)
  neurotoxicity: not neurotoxic

## C=CC(N)=O [acrylamide]
[4]; in vivo
  neurotoxicity (general statement): a neurotoxic chemical

## C=CC(=O)O [calcium acrylate (CaA), calcium acrylate]
[5]
  gel time (in words): long gel time
[6]
  compressive strength of stabilized soil: up to 600 psi
